#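 Growth conditions: 96-well plates. Treatment: test compound, 48 hours, 5 concentrations. Analysis: linear interpolation between bracketing concentrations; unreached endpoints set to highest concentration. Here, GI50 denotes the concentration required for 50% inhibition of growth. TGI denotes the concentration required for complete inhibition of growth.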
# How the values were obtained:
# Experiment in all cases: DTP human tumour cell line panel, 48 h
# M14 melanoma = system: M14 melanoma
# SK-MEL-2 melanoma = system: SK-MEL-2 melanoma
# SF-295 CNS = system: SF-295 CNS
# UO-31 renal = system: UO-31 renal
# T-47D breast = system: T-47D breast
# K-562 leukemia = system: K-562 leukemia
# SR leukemia = system: SR leukemia
# OVCAR-5 ovarian = system: OVCAR-5 ovarian
# UACC-257 melanoma = system: UACC-257 melanoma
# A498 renal = system: A498 renal
# NCI-H226 lung = system: NCI-H226 lung
# MDA-MB-435 = system: MDA-MB-435
# HCT-15 colon = system: HCT-15 colon
# LOX IMVI melanoma = system: LOX IMVI melanoma
# SK-MEL-5 melanoma = system: SK-MEL-5 melanoma
# KM12 colon = system: KM12 colon
# SK-OV-3 ovarian = system: SK-OV-3 ovarian
# SW-620 colon = system: SW-620 colon
# COLO 205 colon = system: COLO 205 colon
# HCC-2998 colon = system: HCC-2998 colon
# SNB-19 CNS = system: SNB-19 CNS
# OVCAR-3 ovarian = system: OVCAR-3 ovarian
# NCI-H460 lung = system: NCI-H460 lung
# HCT-116 colon = system: HCT-116 colon
# MALME-3M melanoma = system: MALME-3M melanoma
# NCI-H23 lung = system: NCI-H23 lung
# IGROV1 ovarian = system: IGROV1 ovarian
# CCRF-CEM leukemia = system: CCRF-CEM leukemia
# PC-3 prostate = system: PC-3 prostate
# SF-268 CNS = system: SF-268 CNS
# U251 CNS = system: U251 CNS
# RXF 393 renal = system: RXF 393 renal
# HL-60(TB) leukemia = system: HL-60(TB) leukemia
# SF-539 CNS = system: SF-539 CNS
# A549 NSCLC = system: A549 NSCLC
# MCF7 breast = system: MCF7 breast
# ACHN renal = system: ACHN renal
# RPMI-8226 leukemia = system: RPMI-8226 leukemia
# DU-145 prostate = system: DU-145 prostate
# BT-549 breast = system: BT-549 breast
# TK-10 renal = system: TK-10 renal
# SK-MEL-28 melanoma = system: SK-MEL-28 melanoma
# MDA-MB-468 breast = system: MDA-MB-468 breast
# UACC-62 melanoma = system: UACC-62 melanoma
# EKVX NSCLC = system: EKVX NSCLC
# MOLT-4 leukemia = system: MOLT-4 leukemia
# 786-0 renal = system: 786-0 renal
# HOP-62 NSCLC = system: HOP-62 NSCLC
# HS 578T breast = system: HS 578T breast
# SNB-75 CNS = system: SNB-75 CNS
# MDA-MB-231 breast = system: MDA-MB-231 breast
# CAKI-1 renal = system: CAKI-1 renal
# HT29 colon = system: HT29 colon
# OVCAR-8 ovarian = system: OVCAR-8 ovarian
# HOP-92 NSCLC = system: HOP-92 NSCLC
# NCI-H522 lung = system: NCI-H522 lung
# OVCAR-4 ovarian = system: OVCAR-4 ovarian
# SN12C renal = system: SN12C renal
smiles,measurement,setting,value
CCOC(=O)C1=C(N)N(c2ccccc2)C2=C(C(=O)CC(C)(C)C2)C1c1ccc(Cl)cc1Cl (stereo unspecified),GI50,M14 melanoma,34.8 µM
same,TGI,M14 melanoma,> 100 µM
same,GI50,SK-MEL-2 melanoma,17 µM
same,TGI,SK-MEL-2 melanoma,58 µM
same,GI50,SF-295 CNS,20.3 µM
same,TGI,SF-295 CNS,> 100 µM
same,GI50,UO-31 renal,11.5 µM
same,TGI,UO-31 renal,> 100 µM
same,GI50,T-47D breast,10.4 µM
same,TGI,T-47D breast,> 100 µM
same,GI50,K-562 leukemia,7.23 µM
same,TGI,K-562 leukemia,> 100 µM
same,GI50,SR leukemia,14.7 µM
same,TGI,SR leukemia,> 100 µM
same,GI50,OVCAR-5 ovarian,72.6 µM
same,TGI,OVCAR-5 ovarian,> 100 µM
same,GI50,UACC-257 melanoma,28.8 µM
same,TGI,UACC-257 melanoma,> 100 µM
same,GI50,A498 renal,45.4 µM
same,TGI,A498 renal,> 100 µM
same,GI50,NCI-H226 lung,23.4 µM
same,TGI,NCI-H226 lung,> 100 µM
same,GI50,MDA-MB-435,32.1 µM
same,TGI,MDA-MB-435,> 100 µM
same,GI50,HCT-15 colon,15.2 µM
same,TGI,HCT-15 colon,> 100 µM
same,GI50,LOX IMVI melanoma,32.4 µM
same,TGI,LOX IMVI melanoma,> 100 µM
same,GI50,SK-MEL-5 melanoma,12.4 µM
same,TGI,SK-MEL-5 melanoma,25.6 µM
same,GI50,KM12 colon,23.6 µM
same,TGI,KM12 colon,> 100 µM
same,GI50,SK-OV-3 ovarian,33.5 µM
same,TGI,SK-OV-3 ovarian,> 100 µM
same,GI50,SW-620 colon,29 µM
same,TGI,SW-620 colon,> 100 µM
same,GI50,COLO 205 colon,20.6 µM
same,TGI,COLO 205 colon,91.3 µM
same,GI50,HCC-2998 colon,27.7 µM
same,TGI,HCC-2998 colon,> 100 µM
same,GI50,SNB-19 CNS,29.2 µM
same,TGI,SNB-19 CNS,> 100 µM
same,GI50,OVCAR-3 ovarian,26.2 µM
same,TGI,OVCAR-3 ovarian,> 100 µM
same,GI50,NCI-H460 lung,13.9 µM
same,TGI,NCI-H460 lung,> 100 µM
same,GI50,HCT-116 colon,7.89 µM
same,TGI,HCT-116 colon,> 100 µM
same,GI50,MALME-3M melanoma,29.3 µM
same,TGI,MALME-3M melanoma,> 100 µM
same,GI50,NCI-H23 lung,25.1 µM
same,TGI,NCI-H23 lung,> 100 µM
same,GI50,IGROV1 ovarian,79.7 µM
same,TGI,IGROV1 ovarian,> 100 µM
same,GI50,CCRF-CEM leukemia,31 µM
same,TGI,CCRF-CEM leukemia,> 100 µM
same,GI50,PC-3 prostate,4.14 µM
same,TGI,PC-3 prostate,> 100 µM
same,GI50,SF-268 CNS,53.2 µM
same,TGI,SF-268 CNS,> 100 µM
same,GI50,U251 CNS,24.6 µM
same,TGI,U251 CNS,> 100 µM
same,GI50,RXF 393 renal,13.8 µM
same,TGI,RXF 393 renal,> 100 µM
same,GI50,HL-60(TB) leukemia,5.95 µM
same,TGI,HL-60(TB) leukemia,> 100 µM
same,GI50,SF-539 CNS,37.8 µM
same,TGI,SF-539 CNS,> 100 µM
same,GI50,A549 NSCLC,18.8 µM
same,TGI,A549 NSCLC,> 100 µM
same,GI50,MCF7 breast,17.7 µM
same,TGI,MCF7 breast,> 100 µM
same,GI50,ACHN renal,18.3 µM
same,TGI,ACHN renal,> 100 µM
same,GI50,RPMI-8226 leukemia,7.07 µM
same,TGI,RPMI-8226 leukemia,> 100 µM
same,GI50,DU-145 prostate,67.1 µM
same,TGI,DU-145 prostate,> 100 µM
same,GI50,BT-549 breast,45.8 µM
same,TGI,BT-549 breast,> 100 µM
same,GI50,TK-10 renal,56.3 µM
same,TGI,TK-10 renal,> 100 µM
same,GI50,SK-MEL-28 melanoma,66.7 µM
same,TGI,SK-MEL-28 melanoma,> 100 µM
same,GI50,MDA-MB-468 breast,6.83 µM
same,TGI,MDA-MB-468 breast,53.8 µM
same,GI50,UACC-62 melanoma,12.6 µM
same,TGI,UACC-62 melanoma,> 100 µM
same,GI50,EKVX NSCLC,26.2 µM
same,TGI,EKVX NSCLC,> 100 µM
same,GI50,MOLT-4 leukemia,9.56 µM
same,TGI,MOLT-4 leukemia,> 100 µM
same,GI50,786-0 renal,42.4 µM
same,TGI,786-0 renal,> 100 µM
same,GI50,HOP-62 NSCLC,48.8 µM
same,TGI,HOP-62 NSCLC,> 100 µM
same,GI50,HS 578T breast,76.8 µM
same,TGI,HS 578T breast,> 100 µM
same,GI50,SNB-75 CNS,53.3 µM
same,TGI,SNB-75 CNS,> 100 µM
same,GI50,MDA-MB-231 breast,33.5 µM
same,TGI,MDA-MB-231 breast,> 100 µM
same,GI50,CAKI-1 renal,6.82 µM
same,TGI,CAKI-1 renal,> 100 µM
same,GI50,HT29 colon,19.8 µM
same,TGI,HT29 colon,> 100 µM
same,GI50,OVCAR-8 ovarian,37.2 µM
same,TGI,OVCAR-8 ovarian,> 100 µM
same,GI50,HOP-92 NSCLC,3.89 µM
same,TGI,HOP-92 NSCLC,65.5 µM
same,GI50,NCI-H522 lung,22.2 µM
same,TGI,NCI-H522 lung,> 100 µM
same,GI50,OVCAR-4 ovarian,28.3 µM
same,TGI,OVCAR-4 ovarian,> 100 µM
same,GI50,SN12C renal,30.8 µM
same,TGI,SN12C renal,> 100 µM
